Experimental data reported in publication PMC3885398, “Evaluation of the Antitumor Effects of BPR1J-340, a Potent and Selective FLT3 Inhibitor, Alone or in Combination with an HDAC Inhibitor, Vorinostat, in AML Cancer” (PLoS ONE, 2014).

Legend:
[1] = system: A431; assay: Cell viability MTS assay; assay type: cell-based; settings: Homo sapiens, A-431; A431, non-leukemia; read-out: Proliferation GI50
Experimental: (§1) Cell viability was assessed with an MTS assay as carried out as the method described previously. Cells were seeded in 96-well plates at a density of 10,000 cells per well for 16 hours and then treated with vehicle or various concentrations of compound in medium. The change in viable cells was quantitated using the MTS method (Promega, Madison, WI, USA) according to the manufacturer's recommended protocol or by cell counting under a microscope. The GC50 value was defined as the amount of compound that caused a 50% reduction in cell viability in comparison with DMSO-treated (vehicle) control and was calculated using Prism version 4 software (Graph-Pad Software, Inc., San Diego, CA, USA). The data are presented as the mean ± S.D. from three independent experiments. Cell growth were measured by trypan blue dye exclusion method. Cells (1×10^4 mL^−1) were cultured in 12-well plates for 24 hours and then treated with different amounts of test compound and the same volumes of vehicle for 72 hours. The number of viable cells was counted by trypan blue dye staining using a hemocytometer at the indicated time point after drug treatment. The result was expressed as the mean ± S.D. from triplicate determinations.

[2] = system: RS4;11; assay: Cell viability MTS assay; assay type: cell-based; settings: Homo sapiens; RS4;11, leukemia, wild-type FLT3, FLT3-independent; read-out: Proliferation GI50 (GC50 in the text)
Experimental: as §1

[3] = system: HCC827; assay: Cell viability MTS assay; assay type: cell-based; settings: Homo sapiens; HCC827, non-leukemia; read-out: Proliferation GI50
Experimental: as §1

[4] = system: Huh7; assay: Cell viability MTS assay; assay type: cell-based; settings: Homo sapiens, Huh-7; Huh7, non-leukemia; read-out: Proliferation GI50
Experimental: as §1

[5] = system: MKN45; assay: Cell viability MTS assay; assay type: cell-based; settings: Homo sapiens, MKN-45; MKN45, non-leukemia; read-out: Proliferation GI50
Experimental: as §1

[6] = system: Detroit551; assay: Cell viability MTS assay; assay type: cell-based; settings: Homo sapiens, Detroit 551; Detroit551, non-leukemia; read-out: Proliferation GI50
Experimental: as §1

[7] = system: MiaPaCa-2; assay: Cell viability MTS assay; assay type: cell-based; settings: Homo sapiens, MIA PaCa-2; MiaPaCa-2, non-leukemia; read-out: Proliferation GI50
Experimental: as §1

[8] = system: H2228; assay: Cell viability MTS assay; assay type: cell-based; settings: Homo sapiens, NCI-H2228; H2228, non-leukemia; read-out: Proliferation GI50
Experimental: as §1

[9] = system: H1975; assay: Cell viability MTS assay; assay type: cell-based; settings: Homo sapiens, NCI-H1975; H1975, non-leukemia; read-out: Proliferation GI50
Experimental: as §1

[10] = system: U937; assay: Cell viability MTS assay; assay type: cell-based; settings: Homo sapiens, U-937; U937, leukemia; read-out: Proliferation GI50
Experimental: as §1

[11] = system: Hep3B; assay: Cell viability MTS assay; assay type: cell-based; settings: Homo sapiens, non-leukemia, read-out: Proliferation GI50
Experimental: as §1

[12] = system: HCT-116; assay: Cell viability MTS assay; assay type: cell-based; settings: Homo sapiens; HCT-116, non-leukemia; read-out: Proliferation GI50
Experimental: as §1

[13] = system: NCIH460; assay: Cell viability MTS assay; assay type: cell-based; settings: Homo sapiens, NCI-H460; NCIH460, non-leukemia; read-out: Proliferation GI50
Experimental: as §1

[14] = system: H1650; assay: Cell viability MTS assay; assay type: cell-based; settings: Homo sapiens, NCI-H1650; H1650, non-leukemia; read-out: Proliferation GI50
Experimental: as §1

[15] = system: MCF-7; assay: Cell viability MTS assay; assay type: cell-based; settings: Homo sapiens, MCF7; MCF-7, non-leukemia; read-out: Proliferation GI50
Experimental: as §1

[16] = system: K562; assay: Cell viability MTS assay; assay type: cell-based; settings: Homo sapiens; K562, leukemia; read-out: Proliferation GI50
Experimental: as §1

[17] = system: RT4; assay: Cell viability MTS assay; assay type: cell-based; settings: Homo sapiens, RT-4; RT4, non-leukemia; read-out: Proliferation GI50
Experimental: as §1

[18] = system: STAT5 phosphorylation; assay: STAT5 phosphorylation in MV4;11 cells, Western blot; assay type: cell-based; settings: Homo sapiens, 1 hour
Experimental: Cells were lysed in lysis buffer (50 mM Tris, pH 8.0, 150 mM NaCl, 1% Triton X-100, 0.5% sodium deoxycholate, 0.1% SDS, 1 mM sodium orthovanadate, 1 mM PMSF, and 1 mM DTT). Protein lysates were resolved by SDS-PAGE and transferred onto a polyvinylidene difluoride (PVDF) membrane (Millipore, Bedford, MA, USA). The membranes were immunoblotted with appropriate antibodies and detected using the SuperSignal reagent (Pierce, Rockford, IL, USA) followed by exposure to X-ray film.
To address whether BPR1J-340 was able to inhibit the FLT3 signaling pathway in FLT3-driven cells, MV4;11 cells were treated with different concentrations of BPR1J-340 for 1 hour, and the phosphorylation status of FLT3 and STAT5 (Signal Transducer and Activator of Transcription 5), a critical down-stream modulator that plays a major role in FLT3-ITD signal transduction for cell expansion and survival, was examined by Western blot analysis. […] To investigate the difference in sensitivity between FLT3-WT and the activating mutants FLT3-ITD and FLT3-D835Y to BPR1J-340, HEK293T cells engineered to express FLT3-WT or mutants FLT3 (FLT3-ITD, FLT3-D835Y) were analyzed. […]
Figure 2 BPR1J-340 inhibits FLT3-dependent signaling. […] The phosphorylation status of FLT3 and STAT5 were evaluated by Western blot analysis. […] The FLT3 phosphorylation status in the transfected cells was evaluated by Western blot analysis.

[19] = target: T1, FLT3 (wild-type, residues Y567-S993) (Homo sapiens, UniProt P36888); assay: FLT3 Kinase-Glo kinase assay; assay type: biochemical
T1 construct: FLT3 (residues Y567-S993); made in house
T1 sequence (P36888 567-993): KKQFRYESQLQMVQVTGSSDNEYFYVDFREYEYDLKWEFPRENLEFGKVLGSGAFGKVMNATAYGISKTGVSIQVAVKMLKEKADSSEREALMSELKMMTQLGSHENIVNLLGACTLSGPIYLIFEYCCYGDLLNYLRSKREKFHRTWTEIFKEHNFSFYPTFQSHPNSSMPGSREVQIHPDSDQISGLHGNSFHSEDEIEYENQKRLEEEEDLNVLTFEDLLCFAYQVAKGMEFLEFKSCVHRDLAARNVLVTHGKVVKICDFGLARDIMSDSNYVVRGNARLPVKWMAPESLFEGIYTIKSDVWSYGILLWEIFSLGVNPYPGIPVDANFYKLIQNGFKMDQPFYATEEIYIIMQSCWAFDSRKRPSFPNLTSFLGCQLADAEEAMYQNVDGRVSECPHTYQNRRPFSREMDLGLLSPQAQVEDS
Experimental: All inhibitors were dissolved in dimethylsulfoxide (DMSO) at a stock concentration of 10 mM. […] The preparation of recombinant proteins, FLT3 (residues Y567-S993), VEGFR1 (residues R781-I1338) and VEGFR2 (residues V789-V1356), for biochemical kinase assay was described previously [29].
The FLT3 and VEGFR1/2 Kinase-Glo kinase assays were performed as reported by our earlier study [30].

## CCc1cc(NC(=O)NCc2ccc(-c3cc(NC(=O)c4ccc(CN5CCN(C)CC5)cc4)[nH]n3)cc2)no1 [BPR1J-340, N1-(3-4-[([(5-ethyl-3-isoxazolyl)amino]carbonylamino)methyl]phenyl-1H-5-pyrazolyl)-4-[(4-methylpiperazino)methyl]benzamide]
[1]
  GI50: 6.57 µM
[2]
  GI50: 0.77 ± 0.36 µM
[3]
  GI50: 2.47 µM
[4]
  GI50: 9.74 µM
[5]
  GI50: 3.58 µM
[6]
  GI50: 8.34 µM
[7]
  GI50: 9.96 µM
[8]
  GI50: 2.52 µM
[9]
  GI50: 2.61 µM
[10]
  GI50: 2.4 µM
[11]
  GI50: 8.31 µM
[12]
  GI50: 9.33 µM
[13]
  GI50: 13.2 µM
[14]
  GI50: 3.73 µM
[15]
  GI50: 11.3 µM
[16]
  GI50: 6.37 µM
[17]
  GI50: 7.03 µM
[18]
  IC50: ~0.001 µM
[19]
  IC50: 0.029 ± 0.005 µM
